Source: publication PMC7266110 (Drug Design, Development and Therapy, 2020)

Molecular target: T1, PPARγ (Homo sapiens, UniProt P37231)
T1 sequence (P37231 1-505): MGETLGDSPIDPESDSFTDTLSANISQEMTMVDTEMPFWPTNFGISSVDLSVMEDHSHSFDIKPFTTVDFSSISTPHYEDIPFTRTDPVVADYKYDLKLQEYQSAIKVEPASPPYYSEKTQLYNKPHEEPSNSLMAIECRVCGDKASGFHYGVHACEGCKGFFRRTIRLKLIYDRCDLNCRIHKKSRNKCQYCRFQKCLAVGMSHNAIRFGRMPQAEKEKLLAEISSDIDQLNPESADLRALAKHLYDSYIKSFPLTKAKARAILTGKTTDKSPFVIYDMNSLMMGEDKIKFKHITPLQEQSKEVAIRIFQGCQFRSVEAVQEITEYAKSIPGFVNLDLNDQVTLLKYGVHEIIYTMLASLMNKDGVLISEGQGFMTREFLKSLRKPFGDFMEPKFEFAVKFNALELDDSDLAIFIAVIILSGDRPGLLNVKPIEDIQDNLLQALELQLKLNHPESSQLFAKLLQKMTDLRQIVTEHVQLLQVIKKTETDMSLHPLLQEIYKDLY
Test: FP-based PPARγ ligand screening assay
Assay type: binding

O=C(/C=C/C=C/c1ccc2c(c1)OCO2)N1CCCCC1 [Piperine]
IC50: 18.4 µM
